In patent US20260183407A1, “DYRK/CLK PROTACS AND USES THEREOF” (Arizona Board of Regents on Behalf of the University of …, priority 2022, published 2026):

How the values were obtained:
DYRK1A [1] = biological target: T1, DYRK1A (Homo sapiens, UniProt Q13627); assay: HiBiT split luciferase assay of targeted degradation of DYRK1A in Flp-In T-REx 293 cells; format: cell-based; details: 300 nM compound, 24 h, HiBiT-tagged DYRK1A in Flp-In T-REx 293 cells, normalized to vehicle; read-out: Relative Degradation at 300 nM DYRK1A
T1 construct: purchased Eurofins; host or cells: E. coli BL21-derived (T7 phage display) or HEK-293
Source text: The Flp-In T-REx 293 Cell Line and the pcDNA5/FRT/TO vector (Invitrogen) were used to generate stable cell clones for tetracyclin-inducible expression of DYRK1A and DYRK1B. These cells contain a single stably integrated Flp recognition target (FRT) site, which allows for site-specific integration of the expression cassette by the Flp (Flippase) recombinase. DYRK1 constructs were designed to contain a C-terminal HiBiT tag for quantitative detection of HiBiT-tagged proteins in cellular lysates with the help a split luciferase assay (Nano-Glo HiBiT Lytic Detection System, Promega). To monitor the targeted degradation of DYRK1A or DYRK1B, cells were seeded in 96-well plates (10,000 cells/per well) and treated with doxycyclineinal concentration 2 μg/ml) to induce DYRK1 expression. Compounds with presumed PROTAC activity were administered 24 h after seeding. After further incubation for 24 h, cells were grossly and microscopically inspected for overt toxicity. Cells were lysed in 100 μL ice-cold passive lysis buffer (PLB, Promega) by orbital shaking (30 min on ice) before lysates were centrifuged in PCR tube (20 min 20,000 g, RT). A 10 μl aliquot of the supernatant was subjected to the HiBiT lytic assay. Luminescence was quantified in an Orion Microplate luminometer (Berthold Detection System, Germany). All compounds were tested in duplicate or triplicate wells (technical replicates) and at least two independent experiments. Relative degradation was calculated by normalization to vehicle-treated control samples.

DYRK1A [2] = biological target: T1, DYRK1A; assay: KdELECT kinase binding assay (Eurofins), DYRK1A; details: 11-point 3-fold dilution series, qPCR readout; read-out: Binding Affinity (Kd) DYRK1A
Description: (§1) KDs were obtained from Eurofins who used the following procedure: Kinase tagged T7 phase strains were prepared in an E. coli host derived from the BL21 strain. E. coli were grown to log-phase and infected with T7 phage and incubated with shaking at 32° C. until lysis. The lysates were centrifuged and filtered to remove cell debris. The remaining kinases were produced in HEK-293 cells and subsequently tagged with DNA for qPCR detection. Streptavidin-coated magnetic beads were treated with biotinylated small molecule ligands for 30 minutes at room temperature to generate affinity resins for kinase assays. The liganded beads were blocked with excess biotin and washed with locking buffer (SeaBlock (Pierce), 1% BSA, 0.05% Tween 20, 1 mM DTT) to remove unbound ligand and to reduce non-specific binding. Binding reactions were assembled by combining kinases, liganded affinity beads, and test compounds in 1× binding buffer (20% SeaBlock, 0.17× PBS, 0.05% Tween 20, 6 mM DTT). Test compounds were prepared as 111X stocks in 100% DMSO. Kds were determined using a 11-poin 3-fold compound dilution series with three DMSO control points. All compounds for Kd measurements are distributed by acoustic transfer (non-contact dispensing) in 100% DMSO. The compounds were then diluted directly into the assays such that the final concentration of DMSO was 0.9%. All reactions performed in polypropylene 384-well plate. Each was a final volume of 0.02 mL. The assay plates were incubated at room temperature with shaking for 1 hour and the affinity beads were washed with wash buffer (1×PBS, 0.05% Tween 20). The beads were then resuspended in elution buffer (1X PBS, 0.05% Tween 20, 0.5 µM nonbiotinylated affinity ligand) and incubated at room temperature with shaking for 30 minutes. The kinase concentration in the eluates was measured by qPCR.

DYRK1B = biological target: T2, DYRK1B (Homo sapiens, UniProt Q9Y463); assay: KdELECT kinase binding assay (Eurofins), DYRK1B; details: 11-point 3-fold dilution series, qPCR readout; read-out: Binding Affinity (Kd) DYRK1B
T2 construct: purchased Eurofins; host or cells: E. coli BL21-derived (T7 phage display) or HEK-293
Description: as §1

T2 sequence (Q9Y463 whole entry, species assumed): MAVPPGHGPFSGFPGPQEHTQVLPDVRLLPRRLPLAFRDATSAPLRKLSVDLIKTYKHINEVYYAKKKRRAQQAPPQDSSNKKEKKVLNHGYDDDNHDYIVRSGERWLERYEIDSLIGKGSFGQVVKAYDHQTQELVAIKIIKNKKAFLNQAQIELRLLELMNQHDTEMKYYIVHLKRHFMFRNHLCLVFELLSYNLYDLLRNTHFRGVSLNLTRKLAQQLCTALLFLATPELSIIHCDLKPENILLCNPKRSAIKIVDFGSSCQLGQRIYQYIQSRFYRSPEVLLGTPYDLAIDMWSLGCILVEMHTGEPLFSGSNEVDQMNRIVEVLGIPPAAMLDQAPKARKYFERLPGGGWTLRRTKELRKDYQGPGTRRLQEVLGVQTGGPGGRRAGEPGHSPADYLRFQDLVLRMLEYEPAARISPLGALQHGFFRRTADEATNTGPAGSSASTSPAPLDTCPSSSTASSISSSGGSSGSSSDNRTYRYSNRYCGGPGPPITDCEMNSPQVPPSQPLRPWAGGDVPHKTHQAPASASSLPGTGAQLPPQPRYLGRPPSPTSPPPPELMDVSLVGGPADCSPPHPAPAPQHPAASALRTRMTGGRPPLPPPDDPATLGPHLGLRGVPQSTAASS

| Structure (SMILES) | inhibition at 0.3 µM (DYRK1A [1]) [%] | Kd (DYRK1A [2]) [nM] | Kd (DYRK1B) [nM] |
| --- | --- | --- | --- |
| Cc1nc2ccc(-c3ccnc(N)c3)nc2n1-c1ccc(N2CCN(CCOCCOCCOCCC(=O)NC3CN(c4ccc5c(c4)C(=O)N(C4CCC(=O)NC4=O)C5=O)C3)CC2)c(F)c1 (stereo not drawn) [Compound 8, 3-(2-(2-(2-(4-(4-(5-(2-aminopyridin-4-yl)-2-methyl-3H-imidazo[4,5-b]pyridin-3-yl)-2-fluorophenyl)piperazin-1-yl)ethoxy)ethoxy)ethoxy)-N-(1-(2-(2,6-dioxopiperidin-3-yl)-1,3-dioxoisoindolin-5-yl)azetidin-3-yl)propanamide] | < 30 | < 10 |  |
| Cc1nc2ccc(-c3ccnc(N)c3)nc2n1-c1cc(F)c(N2C[C@@H](C)N(CC#Cc3ccc(N4CCC(C(=O)N5CCC(n6cc(CNc7cccc8c7C(=O)N(C7CCC(=O)NC7=O)C8=O)cn6)CC5)CC4)nc3)[C@@H](C)C2)c(F)c1 (stereo partly drawn) [Compound 37, 4-(((1-(1-(1-(5-(3-((2S,6R)-4-(4-(5-(2-aminopyridin-4-yl)-2-methyl-3H-imidazo[4,5-b]pyridin-3-yl)-2,6-difluorophenyl)-2,6-dimethylpiperazin-1-yl)prop-1-yn-1-yl)pyridin-2-yl)piperidine-4-carbonyl)piperidin-4-yl)-1H-pyrazol-4-yl)methyl)amino)-2-(2,6-dioxopiperidin-3-yl)isoindoline-1,3-dione] |  | < 10 | 10 to 100 |
| Cc1nc2ccc(-c3ccnc(N)c3)nc2n1-c1cc(F)c(N2CC3(CN(CC#Cc4ccc(N5CCC(C(=O)N6CCC(n7cc(CNc8cccc9c8C(=O)N(C8CCC(=O)NC8=O)C9=O)cn7)CC6)CC5)nc4)C3)C2)c(F)c1 (stereo not drawn) [Compound 40, 4-(((1-(1-(1-(5-(3-(6-(4-(5-(2-aminopyridin-4-yl)-2-methyl-3H-imidazo[4,5-b]pyridin-3-yl)-2,6-difluorophenyl)-2,6-diazaspiro[3.3]heptan-2-yl)prop-1-yn-1-yl)pyridin-2-yl)piperidine-4-carbonyl)piperidin-4-yl)-1H-pyrazol-4-yl)methyl)amino)-2-(2,6-dioxopiperidin-3-yl)isoindoline-1,3-dione] |  | < 10 | 10 to 100 |
| Cc1nc2ccc(-c3ccnc(N)c3)nc2n1-c1cc(F)c(N2CCN(C3CN(CC#Cc4ccc(N5CCC(C(=O)N6CCC(n7cc(CNc8cccc9c8C(=O)N(C8CCC(=O)NC8=O)C9=O)cn7)CC6)CC5)nc4)C3)CC2)c(F)c1 (stereo not drawn) [Compound 39, 4-(((1-(1-(1-(5-(3-(3-(4-(4-(5-(2-aminopyridin-4-yl)-2-methyl-3H-imidazo[4,5-b]pyridin-3-yl)-2,6-difluorophenyl)piperazin-1-yl)azetidin-1-yl)prop-1-yn-1-yl)pyridin-2-yl)piperidine-4-carbonyl)piperidin-4-yl)-1H-pyrazol-4-yl)methyl)amino)-2-(2,6-dioxopiperidin-3-yl)isoindoline-1,3-dione] |  | < 10 | < 10 |
| Cc1nc2ccc(-c3ccnc(N)c3)nc2n1-c1cc(F)c(N2CCN(C3CCN(CC#Cc4ccc(N5CCC(C(=O)N6CCC(n7cc(CNc8cccc9c8C(=O)N(C8CCC(=O)NC8=O)C9=O)cn7)CC6)CC5)nc4)CC3)CC2)c(F)c1 (stereo not drawn) [Compound 36, 4-(((1-(1-(1-(5-(3-(4-(4-(4-(5-(2-aminopyridin-4-yl)-2-methyl-3H-imidazo[4,5-b]pyridin-3-yl)-2,6-difluorophenyl)piperazin-1-yl)piperidin-1-yl)prop-1-yn-1-yl)pyridin-2-yl)piperidine-4-carbonyl)piperidin-4-yl)-1H-pyrazol-4-yl)methyl)amino)-2-(2,6-dioxopiperidin-3-yl)isoindoline-1,3-dione] |  | < 10 | < 10 |
| Cc1nc2ccc(-c3ccnc(N)c3)nc2n1-c1cc(F)c(N2CCN(CC#Cc3ccc(N4CCC(C(=O)N5CCC(n6cc(COc7ccc(C8CCC(=O)NC8=O)cc7)cn6)CC5)CC4)nc3)CC2)c(F)c1 (stereo not drawn) [Compound 34, 3-(4-((1-(1-(1-(5-(3-(4-(4-(5-(2-aminopyridin-4-yl)-2-methyl-3H-imidazo[4,5-b]pyridin-3-yl)-2,6-difluorophenyl)piperazin-1-yl)prop-1-yn-1-yl)pyridin-2-yl)piperidine-4-carbonyl)piperidin-4-yl)-1H-pyrazol-4-yl)methoxy)phenyl)piperidine-2,6-dione] |  | < 10 | < 10 |
| COc1cc(-n2c(C)nc3ccc(-c4ccnc(N)c4)nc32)ccc1N1CCN(CCC#Cc2ccc(N3CCC(C(=O)N4CCC(n5cc(CNc6cccc7c6C(=O)N(C6CCC(=O)NC6=O)C7=O)cn5)CC4)CC3)nc2)CC1 (stereo not drawn) [Compound 38, 4-(((1-(1-(1-(5-(4-(4-(4-(5-(2-aminopyridin-4-yl)-2-methyl-3H-imidazo[4,5-b]pyridin-3-yl)-2-methoxyphenyl)piperazin-1-yl)but-1-yn-1-yl)pyridin-2-yl)piperidine-4-carbonyl)piperidin-4-yl)-1H-pyrazol-4-yl)methyl)amino)-2-(2,6-dioxopiperidin-3-yl)isoindoline-1,3-dione] |  | < 10 | 10 to 100 |

Other lines, results leading:

| inhibition at 0.3 µM (DYRK1A [1]) [%] | Kd (DYRK1A [2]) [nM] | Kd (DYRK1B) [nM] | Structure (SMILES) |
| --- | --- | --- | --- |
| < 30 | < 10 |  | Cc1nc2ccc(-c3ccnc(N)c3)nc2n1-c1ccc(N2CCN(CCOCCOCCOCCC(=O)N3CCN(c4ccc5c(c4)C(=O)N(C4CCC(=O)NC4=O)C5=O)CC3)CC2)c(F)c1 (stereo not drawn) [Compound 9, 5-(4-(3-(2-(2-(2-(4-(4-(5-(2-aminopyridin-4-yl)-2-methyl-3H-imidazo[4,5-b]pyridin-3-yl)-2-fluorophenyl)piperazin-1-yl)ethoxy)ethoxy)ethoxy)propanoyl)piperazin-1-yl)-2-(2,6-dioxopiperidin-3-yl)isoindoline-1,3-dione] |
| < 30 | < 10 |  | Cc1nc2ccc(-c3ccnc(N)c3)nc2n1-c1ccc(N2CCN(C(=O)CCCCCN3CCN(Cc4ccc(CNc5cccc6c5CN(C5CCC(=O)NC5=O)C6=O)cc4)CC3)CC2)c(F)c1 (stereo not drawn) [Compound 15, 3-(4-((4-((4-(6-(4-(4-(5-(2-aminopyridin-4-yl)-2-methyl-3H-imidazo[4,5-b]pyridin-3-yl)-2-fluorophenyl)piperazin-1-yl)-6-oxohexyl)piperazin-1-yl)methyl)benzyl)amino)-1-oxoisoindolin-2-yl)piperidine-2,6-dione] |
| < 30 | < 10 |  | Cc1nc2ccc(-c3ccnc(N)c3)nc2n1-c1ccc(N2CCN(C(=O)CN3CCC(CC(=O)N4CCC(n5cc(CNc6cccc7c6C(=O)N(C6CCC(=O)NC6=O)C7=O)cn5)CC4)CC3)CC2)c(F)c1 (stereo not drawn) [Compound 17, 4-(((1-(1-(2-(1-(2-(4-(4-(5-(2-aminopyridin-4-yl)-2-methyl-3H-imidazo[4,5-b]pyridin-3-yl)-2-fluorophenyl)piperazin-1-yl)-2-oxoethyl)piperidin-4-yl)acetyl)piperidin-4-yl)-1H-pyrazol-4-yl)methyl)amino)-2-(2,6-dioxopiperidin-3-yl)isoindoline-1,3-dione] |
| > 60 |  |  | Cc1nc2ccc(-c3ccnc(N)c3)nc2n1-c1ccc(N2CCN(CC#Cc3ccc(N4CCC(O)(C(=O)N5CCC(n6cc(CNc7cccc8c7C(=O)N(C7CCC(=O)NC7=O)C8=O)cn6)CC5)CC4)nc3)CC2)c(F)c1 (stereo not drawn) [Compound 33, 4-(((1-(1-(1-(5-(3-(4-(4-(5-(2-aminopyridin-4-yl)-2-methyl-3H-imidazo[4,5-b]pyridin-3-yl)-2-fluorophenyl)piperazin-1-yl)prop-1-yn-1-yl)pyridin-2-yl)-4-hydroxypiperidine-4-carbonyl)piperidin-4-yl)-1H-pyrazol-4-yl)methyl)amino)-2-(2,6-dioxopiperidin-3-yl)isoindoline-1,3-dione] |
